The source of these data is paper PMC4718634, “Murine GPRC6A Mediates Cellular Responses to L-Amino Acids, but Not Osteocalcin Variants” (PLoS ONE, 2016).

One assay relates to β-TC6 cells. Description: Insulin release from β-TC6 cells. In kind it is cell-based, murine. The conditions noted are these: S3 Fig A. The method, then:
MIN6 or βTC-6 cells were seeded in 24-well plates at 170,000 cells per well in DMEM (containing 4.5g/L glucose, 10 mM HEPES, 100 U/ml penicillin, 100 μg/ml streptomycin and 15% de-complemented FBS) and incubated at 37°C / 5% CO2 for 72 h. Cells were then washed with 500 μl PBS and incubated in 500 μl deprivation media (DMEM with zero glucose, 10 mM HEPES, 1 mM Na-pyruvate, 100 U/ml penicillin, 100 μg/ml streptomycin, 15% de-complemented FBS) for 2 h at 37°C. Media was aspirated and after washing with 500 μl PBS, cells were treated with 250 μl of Krebs buffer (250 mM NaCl, 5.9 mM KCl, 1.2 mM MgCl2, 1.3 mM CaCl2, 25 mM HEPES, 0.1% BSA (w/v), and 2 mM or 16.7 mM glucose; pH 7.4) in the presence or absence of test compound. After incubation for 2 h at 37°C, the assay was terminated by placing the plates on ice and supernatants were transferred to a 96-well plate in preparation for insulin ELISA (Alpco) following manufacturer’s instructions. The cell monolayer was washed twice with 500 μl of PBS and then lysed using 250 μl of 1 N NaOH prior to protein measurement by the method of Bradford (1976).
Concentration-response data were analysed using a three or four parameter logistic function (Motulsky & Christopoulos, 2004) to generate estimates of agonist potency (LogEC50). Data for all HEK293 assays represent the mean ± SEM of at least three independent experiments (except cell impedance, n = 2). For GLP-1 release, the data represent mean ± SEM of three to five independent experiments (except for OCN, wash; n = 2). For insulin release assays, data represent the mean ± SEM of three independent experiments (except for islet studies; n = 2). Insulin release data were normalised to the response to vehicle in either low or high [glucose]. Statistical analysis for GLP-1 release data were performed by one-way ANOVA, followed by Sidak’s multiple comparisons test (treating wash / no wash datasets separately). Statistical analyses for insulin release data were performed by two-way ANOVA (with [glucose] and drug treatment as group variables), followed by Sidak’s multiple comparisons test. Where only high [glucose] groups were evaluated, statistical analysis was by one-way ANOVA followed by Sidak’s multiple comparisons test.

For the next assay, the system named is GLUTag cells. The assay is described as follows: GLP-1 release from GLUTag cells. It is filed as cell-based, murine. The conditions noted are these: for GLP-1 release (summary): S1 Table. A digest of the protocol: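 Matrigel-grown cells, where indicated pre-washed in Krebs-HEPES pH 7.2 with 5.5 mM glucose and 300 μM vildagliptin, were exposed to compound for 2 h at 37 °C. Secreted GLP-1 was measured by fluorescent ELISA (355/460 nm) and normalised to Bradford protein. LogEC50 values came from 3- or 4-parameter logistic fits.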

A further assay concerns mC6A. The conditions noted are these: cited from earlier work. The text has this:
Supplement pone.0146846.s004.docx, table 1 | column: Functional assay

For a further assay, the system named is INS-1(832) cells. Description: Label-free cell impedance, INS-1(832) cells. The conditions noted are these: S1 Table. It is filed as cell-based, rat. A digest of the protocol: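 INS-1(832) cells seeded at 2 x 10^4/well, cultured 48 h in 11.1 mM glucose RPMI, then switched to EBSS containing 2.8 mM glucose for 2 h. Compound added in the same buffer; impedance captured and analysed as for HEK293 cells.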

For another assay, the system named is mice. The conditions noted are these: injected into the peritoneal cavity; WT vs Gprc6a KO mice; ref [12]; cited from earlier work. The text has this: (§1) Additional interest in GPRC6A has emerged due to several studies reporting that it mediates the metabolic and endocrine effects of the de-carboxylated form of the osteoblast-derived peptide, osteocalcin (OCN).

The next assay deals with immortalised cell lines. The conditions noted are these: blocked by siRNA targeting Gprc6a; ref [12], [22]; cited from earlier work.
Source text: as §1

In another assay the test system is GPRC6A. The conditions noted are these: cited from earlier work.
Source text: as §1

The next assay deals with pancreatic islets. The conditions noted are these: GPRC6A-dependent; ref [31]; cited from earlier work. The text has this: Given the range of OCN variants profiled, we propose that species and/or carboxylation status is unlikely to be a cause of the lack of activity in our assays. Other potential explanations are that the species of GPRC6A is critical or that HEK293 cells lack the necessary scaffolding and/or signalling proteins found in cells endogenously expressing GPRC6A. Unfortunately, human GPRC6A was not expressed at the cell surface in our cells, precluding a study of its pharmacology. However, we identified a range of immortalised murine entero-endocrine and pancreatic β-cell lines that express Gprc6a mRNA ...

Entries after “also recorded” stand apart in the source; their conditions may differ. Where two headings read alike, the source gives them in different places.

Regarding `NCCC[C@H](N)C(=O)O` [L-ornithine], the “glucose-sensitive insulin secretion, L-ornithine” value with β-TC6 cells (L-ornithine 20 mM) is “no significant effect”. In addition, the GLP-1 release result with GLUTag cells (L-ornithine 20 mM, 2 h, 37°C, cells washed, **P < 0.01 vs Vehicle, ELISA, Fig 6A) is given as “significantly increases GLP-1 release; also recorded: L-ornithine stimulated GLP-1 release”. Besides, in the assay with GLUTag cells, the “GLP-1 release (summary)” value was “response”. Further, in the assay on mC6A (ref [3] (supplement list)), the cAMP response entry is “[^3H]IP turnover - co-transfection with Gαqs5, GαqG66D, Gαq or GαqG66Ds5 enabled response to L-aa but Gαqi, Gαqz, Gαqo did not cAMP – no increase or decrease in response to L-Orn”. Further, in the assay on mC6A (ref [13] (supplement list)), the cAMP response result is listed as “no response” and the pERK response entry was “response”.

With “OCN: osteoblast-derived peptide, osteocalcin; variant not specified at the place (YLYQWLGAPVPYPDPLEPRREVCELNPDCDELADHIGFQEAYRRFYGPV; UniProt P02818 52-100, looked up)”, the “xCELLigence response (summary)” value in the assay on INS-1(832) cells was “xCELLigence – response to OCN”. Also, in the assay with β-TC6 cells (OCN 0.03–100 ng/ml, both glucose concentrations), the “insulin secretion, OCN” value is “no effect on insulin release; also recorded: failed to induce GSIS”. Moreover, in the assay with GLUTag cells (0.01–10 ng/ml, with or without cell washing, 2 h, Fig 6A), the “GLP-1 release, OCN” value was “failed to increase GLP-1 release”. In addition, the “GLP-1 release (summary)” value in the assay with GLUTag cells is given as “No response”. Besides, the circulating insulin levels entry in the assay on mice is given as “increases circulating insulin levels in WT but not in Gprc6a KO mice”. Further, the GLP-1 release entry in the assay on immortalised cell lines was “OCN-mediated insulin and glucagon-like peptide (GLP)-1 release”. Also, the cAMP accumulation result in the assay on GPRC6A (GPRC6A-expressing cell lines or mouse pancreatic islets, ref [8], [30]) was “cAMP accumulation”. Also, the “OCN concentration stimulating cAMP accumulation” value in the assay on GPRC6A (HEK293 transfected with GPRC6A, species not stated for receptor or peptide, ref [8]) is on record as 3 ng/mL. Besides, in the assay with GPRC6A (approx., HEK293 cells expressing GPRC6A, species not stated, ref [10], [12]), the “OCN concentration promoting ERK1/2 phosphorylation” value is 40 to 80 ng/mL. In addition, in the assay on mC6A (+ GqG66D, ref [13] (supplement list)), the “IP-One HTRF response to EC25 L-Orn + OCN” value is “No response”. The cAMP accumulation response entry in the assay with mC6A (ref [5] (supplement list)) is “cAMP accumulation in response to OCN”. Also, in the assay on mC6A (ref [13] (supplement list)), the “IP-One HTRF response” value was “No response”, the cAMP response result is “no response” and the pERK response result was “No specific response”. Moreover, the insulin secretion result in the assay with pancreatic islets was “increase insulin secretion from pancreatic islets”.
